Laboratory results published in patent US8586755B2, “Substituted nicotinamides as KCNQ2/3 modulators” (Grünenthal GmbH, priority 2009, dated 2013).

Biological target: T1, KCNQ2/3 channels (Homo sapiens, UniProt O43525+O43526)
T1 construct: expressed in transfected cells
Assay: Fluorescence assay using a voltage sensitive dye (fluorimetry)
Type: cell-based
Conditions: CHO-K1 cells expressing KCNQ2/3 channels; for EC50: agonistic activity; for Emax: read-out: Fluorimetry % efficacy (retigabine 50 μM = 100%)
Experimental: Pharmacological Experiments Fluorescence Assay Using a Voltage Sensitive Dye
Human CHO-K1 cells expressing KCNQ2/3 channels are cultivated adherently at 37° C., 5% CO2 and 95% humidity in cell culture bottles (e.g. 80 cm^2 TC flasks, Nunc) with DMEM-high glucose (Sigma Aldrich, D7777) including 10% FCS (PAN Biotech, e.g. 3302-P270521) or alternatively MEM Alpha Medium (1×, liquid, Invitrogen, #22571), 10% fetal calf serum (FCS) (Invitrogen, #10270-106, heat-inactivated) and the necessary selection antibiotics.
Before being sown out for the measurements, the cells are washed with a 1×DPBS buffer without Ca^2+/Mg^2+ (e.g. Invitrogen, #14190-094) and detached from the bottom of the culture vessel by means of Accutase (PAA Laboratories, #L11-007) (incubation with Accutase for 15 min at 37° C.). The cell count then present is determined using a CASY™ cell counter (TCC model, Schärfe System) in order subsequently to apply, depending on the density optimization for the individual cell line, 20,000-30,000 cells/well/100 μl of the described nutrient medium to 96-well measuring plates of the Corning™ CellBIND™ type (Flat Clear Bottom Black Polystyrene Microplates, #3340). Incubation is then carried out for one hour at room temperature, without gassing or adjusting the humidity, followed by incubation for 24 hours at 37° C., 5% CO2 and 95% humidity.
The voltage-sensitive fluorescent dye from the Membrane Potential Assay Kit (Red™ Bulk format part R8123 for FLIPR, MDS Analytical Technologies™) is prepared by dissolving the contents of a vessel Membrane Potential Assay Kit Red Component A in 200 ml of extracellular buffer (ES buffer, 120 mM NaCl, 1 mM KCl, 10 mM HEPES, 2 mM CaCl2, 2 mM MgCl2, 10 mM glucose; pH 7.4). After removal of the nutrient medium, the cells are washed with 200 μl of ES buffer, then covered with a layer of 100 μl of the dye solution prepared above and incubated for 45 min at room temperature with the exclusion of light.
The fluorescence measurements are carried out with a BMG Labtech FLUOstar™ BMG Labtech NOVOstar™ or BMG Labtech POLARstar™ instrument (525 nm excitation, 560 nm emission, Bottom Read mode). After incubation of the dye, 50 μl of the test substances in the desired concentrations, or 50 μl of ES buffer for control purposes, are introduced into separate cavities of the measuring plate and incubated for 30 min at room temperature while being shielded from light. The fluorescence intensity of the dye is then measured for 5 min and the fluorescence value F1 of each well is thus determined at a given, constant time. 15 μl of a […] KCl solution ([…]) are then added to each well. The change in fluorescence is subsequently measured until all the relevant measured values have been obtained (mainly 5-30 min). At a given time after KCl application, a fluorescence value F2 is determined, in this case at the time of the fluorescence peak.
For calculation, the fluorescence intensity F2 is compared with the fluorescence intensity F1, and the agonistic activity of the target compound on the potassium channel is determined therefrom. F2 and F1 are calculated as follows: […]
In order to determine whether a substance has agonistic activity,
A substance has an agonistic activity on the potassium channel when
[formula] it is possible to conclude that a target compound has agonistic activity if an increase in
[formula] is to be observed as the dosage of the target compound increases.
Calculations of EC50 values are carried out with the aid of ‘Prism v4.0’ software (GraphPad Software™).

| EC50 [nM] | Emax (retigabine 50 μM = 100%) [%] | Fluorimetry % efficacy (retigabine 50 μM = 100%) (retigabine 50 μM = 100%) [%] | Compound |
| --- | --- | --- | --- |
| 307 | 61 |  | O=C(NCC1Cc2ccccc2C1)c1cccnc1SCCCc1ccc(F)cc1 [compound 120, N-(2,3-Dihydro-1H-inden-2-yl-methyl)-2-[3-(4-fluorophenyl)-propylsulfanyl]-pyridine-3-carboxylic acid amide] |
| 30 | 119 |  | O=C(NCc1ccc(F)cc1)c1cccnc1SCCC(F)(F)c1cccc(C(F)(F)F)c1 [compound 165, 2-[[3,3-Difluoro-3-[3-(trifluoromethyl)phenyl]-propyl]sulfanyl]-N-[(4-fluorophenyl)-methyl]-pyridine-3-carboxylic acid amide] |
| 101 | 81 |  | O=C(NCc1ccc2c(c1)OCC2)c1cccnc1SCCCc1ccc(F)cc1 [compound 139, N-(2,3-Dihydro-benzofuran-6-yl-methyl)-2-[3-(4-fluorophenyl)-propylsulfanyl]-pyridine-3-carboxylic acid amide] |
| 72 | 107 |  | O=C(NCc1ccc(F)c(F)c1)c1cccnc1SCCCc1ccc(F)cc1 [compound 71, N-[(3,4-Difluoro-phenyl)-methyl]-2-[3-(4-fluorophenyl)-propylsulfanyl]-pyridine-3-carboxylic acid amide] |
| 1850 | 122 |  | O=C(NCc1ccncc1)c1cccnc1SCCCc1ccc(F)cc1 [compound 128, 2-[3-(4-Fluorophenyl)-propylsulfanyl]-N-(pyridin-4-yl-methyl)-pyridine-3-carboxylic acid amide] |
| 134 | 213 |  | O=C(NCc1ccco1)c1cccnc1SCCCc1ccc(F)cc1 [compound 174, 2-[3-(4-Fluorophenyl)-propylsulfanyl]-N-(furan-2-yl-methyl)-pyridine-3-carboxylic acid amide] |
| 366 | 93 |  | O=C(NCc1ccc2c(c1)OCCO2)c1cccnc1SCCCc1ccc(F)cc1 [compound 137, N-(2,3-Dihydro-[1,4]benzodioxin-6-yl-methyl)-2-[3-(4-fluorophenyl)-propylsulfanyl]-pyridine-3-carboxylic acid amide] |
| 1550 | 254 |  | O=C(NCC1CCCO1)c1cccnc1SCCCc1ccc(F)cc1 (centres unmarked) [compound 181, 2-[3-(4-Fluorophenyl)-propylsulfanyl]-N-(tetrahydro-furan-2-yl-methyl)-pyridine-3-carboxylic acid amide] |
| 233 | 118 |  | COc1cccc(CNC(=O)c2cccnc2SCCCc2ccc(F)cc2)c1 [compound 77, 2-[3-(4-Fluorophenyl)-propylsulfanyl]-N-[(3-methoxyphenyl)-methyl]-pyridine-3-carboxylic acid amide] |
|  | 26 |  | Cc1ccccc1CCNC(=O)c1cccnc1SCCCc1ccc(F)cc1 [compound 86, 2-[3-(4-Fluorophenyl)-propylsulfanyl]-N-[2-(o-tolyl)-ethyl]-pyridine-3-carboxylic acid amide] |
| 394 | 59 |  | Cc1cccc(CCNC(=O)c2cccnc2SCCCc2ccc(F)cc2)c1 [compound 85, 2-[3-(4-Fluorophenyl)-propylsulfanyl]-N-[2-(m-tolyl)-ethyl]-pyridine-3-carboxylic acid amide] |
| 82 | 120 |  | CC(CCc1cccc(C(F)(F)F)c1)Sc1ncccc1C(=O)NCc1ccc(F)cc1 (centres unmarked) [compound 132, N-[(4-Fluorophenyl)-methyl]-2-[[1-methyl-3-[3-(trifluoromethyl)phenyl]-propyl]sulfanyl]-pyridine-3-carboxylic acid amide] |
| 128 |  | 164 | CC(C)(C)CCNC(=O)c1cccnc1SCCCc1ccc(F)cc1 [compound 42] |
|  | 88 |  | O=C(NCCCn1cncn1)c1cccnc1SCCCc1ccc(F)cc1 [compound 157, 2-[3-(4-Fluorophenyl)-propylsulfanyl]-N-[3-(1H-[1,2,4]triazol-1-yl)-propyl]-pyridine-3-carboxylic acid amide] |
| 2810 | 154 |  | O=C(NCCCc1ccccn1)c1cccnc1SCCCc1ccc(F)cc1 [compound 93, 2-[3-(4-Fluorophenyl)-propylsulfanyl]-N-(3-pyridine-2-yl-propyl)-pyridine-3-carboxylic acid amide] |
|  | 33 |  | COc1ccccc1CNC(=O)c1cccnc1SCCCc1ccc(F)cc1 [compound 76, 2-[3-(4-Fluorophenyl)-propylsulfanyl]-N-[(2-methoxyphenyl)-methyl]-pyridine-3-carboxylic acid amide] |

The remaining lines, values behind:

| Compound | EC50 [nM] | Emax (retigabine 50 μM = 100%) [%] | Fluorimetry % efficacy (retigabine 50 μM = 100%) (retigabine 50 μM = 100%) [%] |
| --- | --- | --- | --- |
| O=C(NCC1CC2CCC1C2)c1cccnc1SCCOc1ccc(F)cc1 (centres unmarked) [compound 49, N-(5-Bicyclo[2.2.1]heptanyl-methyl)-2-[2-(4-fluoro-phenoxy)-ethylsulfanyl]-pyridine-3-carboxylic acid amide] | 231 | 174 |  |
| O=C(O)CCNC(=O)c1cccnc1SCCC(F)(F)c1ccc(F)cc1 [compound 197, 3-[[2-[[3,3-Difluoro-3-(4-fluorophenyl)-propyl]sulfanyl]-pyridine-3-carbonyl]amino]-propionic acid] | 14700 | 128 |  |
| O=C(NCc1cccs1)c1cccnc1CCCS(=O)(=O)c1ccccc1 [compound 10, 2-[3-(Benzenesulfonyl)-propyl]-N-(thiophen-2-yl-methyl)-pyridine-3-carboxylic acid amide] |  | 13 |  |
| Cc1ccnc(SCCCc2ccc(F)cc2)c1C(=O)NCCC(C)(C)C [compound 148, N-(3,3-Dimethyl-butyl)-2-[3-(4-fluorophenyl)-propylsulfanyl]-4-methyl-pyridine-3-carboxylic acid amide] | 1960 | 85 |  |
| CC(C)CCCSc1ncccc1C(=O)NCC1CC2CCC1C2 (centres unmarked) [compound 28, N-(5-Bicyclo[2.2.1]heptanyl-methyl)-2-(4-methyl-pentylsulfanyl)-pyridine-3-carboxylic acid amide] | 1570 | 192 |  |
| O=C(NCC1CCCCCC1)c1cccnc1CCCSc1ccc(F)cc1 [compound 29, N-(Cycloheptyl-methyl)-2-[3-[(4-fluorophenyl)sulfanyl]-propyl]-pyridine-3-carboxylic acid amide] | 275 | 159 |  |
| O=C(NCc1cccs1)c1cccnc1CCCSc1ccccc1 [compound 23, 2-(3-Phenylsulfanyl-propyl)-N-(thiophen-2-yl-methyl)-pyridine-3-carboxylic acid amide] | 3770 | 163 |  |
| CC(C)(C)CCNC(=O)c1cccnc1SCCC(F)(F)c1cccc(C(F)(F)F)c1 [compound 166, 2-[[3,3-Difluoro-3-[3-(trifluoromethyl)phenyl]-propyl]sulfanyl]-N-(3,3-dimethyl-butyl)-pyridine-3-carboxylic acid amide] | 46 | 206 |  |
| COC(C)CCNC(=O)c1cccnc1SCCC(F)(F)c1ccc(F)cc1 (centres unmarked) [compound 193, 2-[[3,3-Difluoro-3-(4-fluorophenyl)-propyl]sulfanyl]-N-(3-methoxy-butyl)-pyridine-3-carboxylic acid amide] | 371 | 206 |  |
| COC(=O)CCNC(=O)c1cccnc1SCCC(F)(F)c1ccc(F)cc1 [compound 196, 3-[[2-[[3,3-Difluoro-3-(4-fluorophenyl)-propyl]sulfanyl]-pyridine-3-carbonyl]amino]-propionic acid methyl ester] | 3710 | 190 |  |
| COCCNC(=O)c1cccnc1SCCC(F)(F)c1ccc(F)cc1 [compound 171, 2-[[3,3-Difluoro-3-(4-fluorophenyl)-propyl]sulfanyl]-N-(2-methoxy-ethyl)-pyridine-3-carboxylic acid amide] | 432 | 181 |  |
